Test results as given in patent US5334600A, “Isoquinolyl substituted hydroxylamine derivatives” (Ciba-Geigy Corporation, priority 1993, dated 1994).

Legend:
[1] = tested on: 5-lipoxygenase; assay: Ex vivo inhibition of A-23187-stimulated LTB4 formation in whole blood after oral administration; conditions: dose of about 1.0 mg/kg p.o. to the dog
Procedure: Furthermore, the inhibition of 5-lipoxygenase is determined after oral or i.v. administration to rats or dogs by measuring ex vivo in whole blood the decrease of A-23187-stimulated LTB4 formation as compared to non-treated control animals.

[2] = target: T1, 5-lipoxygenase (Cavia porcellus, UniProt A0A286X958); assay: Inhibition of 5-HETE and LTB4 synthesis in A-23187-stimulated guinea pig polymorphonuclear leukocytes; type: cell-based; conditions: read-out: IC50, inhibition of the formation of 5-HETE and leukotriene B4 (LTB4)
T1 construct: A-23187-stimulated guinea pig polymorphonuclear leukocytes; endogenous in cells; host or cells: guinea pig polymorphonuclear leukocytes
T1 sequence (A0A286X958 1-674): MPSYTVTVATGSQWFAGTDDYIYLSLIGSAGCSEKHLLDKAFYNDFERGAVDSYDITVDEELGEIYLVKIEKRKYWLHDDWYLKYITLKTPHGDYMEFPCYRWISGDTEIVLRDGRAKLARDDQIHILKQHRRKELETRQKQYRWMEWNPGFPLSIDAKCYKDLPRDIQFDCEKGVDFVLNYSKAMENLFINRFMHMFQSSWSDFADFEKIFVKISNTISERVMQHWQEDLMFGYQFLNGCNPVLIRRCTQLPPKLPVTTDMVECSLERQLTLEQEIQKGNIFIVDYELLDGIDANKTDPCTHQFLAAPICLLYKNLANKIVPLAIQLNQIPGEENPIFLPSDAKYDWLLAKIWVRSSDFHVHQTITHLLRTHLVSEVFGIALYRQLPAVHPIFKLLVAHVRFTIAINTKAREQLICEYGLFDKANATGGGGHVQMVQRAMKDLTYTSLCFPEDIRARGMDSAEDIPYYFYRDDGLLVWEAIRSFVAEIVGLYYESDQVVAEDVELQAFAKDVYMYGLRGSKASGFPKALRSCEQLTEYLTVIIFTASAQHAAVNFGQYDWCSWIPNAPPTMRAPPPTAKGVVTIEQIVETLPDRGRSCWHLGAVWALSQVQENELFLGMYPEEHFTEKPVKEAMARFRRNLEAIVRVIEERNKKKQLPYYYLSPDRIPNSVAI
Procedure: 5-Lipoxygenase inhibition is determined e.g. by measuring the percent inhibition of the synthesis of 5-HETE [(5S)-5-hydroxy-6,8,11,14-eicosa-tetraenoic acid] and leukotriene B4 (LTB4, 5,12-dihydroxy-6,8, 10, 14-eicosatetraenoic acid) in A-23187-stimulated guinea pig polymorphonuclear leukocytes, essentially according to radiometric thin-layer chromatographic assays described by Walker and Dawson (J. Pharm. Pharmacol. 31: 778, 1979) and Jakschik and Lee (Nature 287: 51, 1980) to measure the formation of 5-HETE and LTB4 -like products from ^14 C-arachidonic acid. IC50 values are determined graphically as the concentration of test compound at which the synthesis of 5-HETE and LTB4 -like products is reduced to 50 % of their respective control values.

- IC50 [2]: ~0.5 µM
SMILES: NC(=O)N(O)CCOc1ccc2c(c1)CCN(CCCc1ccccc1)C2=O [1(f), 2-(3-phenylpropyl)-6-[2-(N-aminocarbonyl-N-hydroxyamino)ethoxy]-1-oxo-1,2,3,4-tetrahydroisoquinoline]
- inhibition of LTB4 formation as determined ex vivo [1]: significant inhibition
